Measurements: patent US20260256789A1, “METHODS FOR TREATMENT OF CANCER” (Frontier Medicines Corporation, priority 2022, published 2026)

Target: T1, KRAS G12C (GMPPNP-loaded) and cRAF Ras-binding domain (Homo sapiens, UniProt P01116, C118S/C51S/C80L/G12C)
T1 construct: truncated version comprising amino acids 1-169
Test: Inhibition of KRAS G12C and cRAF binding (AlphaScreen)
Conditions: KRAS G12C preloaded with GTP analogue GMPPNP, 2 hours preincubation
In short: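 Compounds (10-point, 1:3 from 50 μM; 2% DMSO) were incubated 2 h at room temperature with 0.5 nM GMPPNP-preloaded truncated Cys-light KRAS G12C, then 60-90 min with 0.75 nM GST-RBD of cRAF and AlphaScreen beads. Signal at 570 nm gave IC50 by 4-parameter regression, and a biotin-AviTag-GST counter assay excluded interference with the AlphaScreen readout.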

T1 sequence (P01116 1-169 isoform P01116-2 G12C/C51S/C80L/C118S): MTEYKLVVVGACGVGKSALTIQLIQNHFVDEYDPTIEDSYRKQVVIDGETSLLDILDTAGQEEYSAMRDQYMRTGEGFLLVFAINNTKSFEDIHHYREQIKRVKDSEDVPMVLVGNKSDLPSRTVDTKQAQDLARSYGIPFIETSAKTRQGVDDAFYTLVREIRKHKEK

| SMILES | IC50 |
| --- | --- |
| Cc1cc(N)nc(-c2ncc3c(N(C)[C@@H]4CCN(C(=O)/C=C/c5nc(C(C)(F)F)no5)C4)nc(OC[C@@]45CCCN4C[C@H](F)C5)nc3c2F)c1C(F)(F)F [Example 56, (E)-1-((R)-3-((7-(6-amino-4-methyl-3-(trifluoromethyl)pyridin-2-yl)-8-fluoro-2-(((2R,7aS)-2-fluorotetrahydro-1H-pyrrolizin-7a(5H)-yl)methoxy)pyrido[4,3-d]pyrimidin-4-yl)(methyl)amino)pyrrolidin-1-yl)-3-(3-(1,1-difluoroethyl)-1,2,4-oxadiazol-5-yl)prop-2-en-1-one] | < 10 nM |
| CN(C)CC#CC(=O)N1CC[C@@H](N(C)c2nc(OC[C@@]34CCCN3C[C@H](F)C4)nc3c(F)c(-c4nc(N)cc5cccc(Cl)c45)ncc23)C1 [Example 38, 1-((R)-3-((7-(3-amino-8-chloroisoquinolin-1-yl)-8-fluoro-2-(((2R,7aS)-2-fluorohexahydro-1H-pyrrolizin-7a-yl)methoxy)pyrido[4,3-d]pyrimidin-4-yl)(methyl)amino)pyrrolidin-1-yl)-4-(dimethylamino)but-2-yn-1-one] | < 10 nM |
| CN(c1nc(OC[C@@]23CCCN2C[C@H](F)C3)nc2c(F)c(-c3cccc(Cl)c3C3CC3)ncc12)[C@@H]1CCN(C(=O)/C=C/CN2[C@@H]3CC[C@H]2COC3)C1 [Example 241] | 10 to 100 nM |
| C=CC(=O)N1CC[C@@H](N(C)c2nc(OC[C@@]34CCCN3C[C@H](F)C4)nc3c2CC(C)C(c2nc(N)cc(C)c2C(F)(F)F)C3)C1 (stereo partly drawn) [Example 68, 1-((3R)-3-((7-(6-amino-4-methyl-3-(trifluoromethyl)pyridin-2-yl)-2-(((2R,7aS)-2-fluorohexahydro-1H-pyrrolizin-7a-yl)methoxy)-6-methyl-5,6,7,8-tetrahydroquinazolin-4-yl)(methyl)amino)pyrrolidin-1-yl)prop-2-en-1-one] | 100 to 500 nM |
| C=CC(=O)N1CCC(N(C)c2nc(OC[C@@]34CCCN3C[C@H](F)C4)nc3c(F)c(-c4n[nH]c5cccc(Cl)c45)ncc23)C1 (some centres unmarked) [Example 224] | ≥ 500 nM |
| CN(c1nc(OC[C@@]23CCCN2C[C@H](F)C3)nc2c(F)c(-c3cccc(Cl)c3C3CC3)ncc12)[C@@H]1CCN(C(=O)/C=C/CN2C[C@H]3C[C@@H]2CO3)C1 [Example 245] | 10 to 100 nM |
| Cc1ncc(F)c(/C=C/C(=O)N2CC[C@@H](N(C)c3nc(OC[C@@]45CCCN4C[C@H](F)C5)nc4c(F)c(-c5cccc(Cl)c5C5CC5)ncc34)C2)n1 [Example 258] | 100 to 500 nM |
| CN1CC[C@@H]1/C=C/C(=O)N1CC[C@@H](N(C)c2nc(OC[C@@]34CCCN3C[C@H](F)C4)nc3c(F)c(-c4nc(N)cc5cccc(Cl)c45)ncc23)C1 [Example 99] | < 10 nM |
| CN(CC1CN(C(=O)/C=C/c2nc(C(C)(F)F)no2)C1)c1nc(OC[C@@]23CCCN2C[C@H](F)C3)nc2c(F)c(-c3nc(N)cc4cccc(Cl)c34)ncc12 [Example 169, (E)-1-(3-(((7-(3-amino-8-chloroisoquinolin-1-yl)-8-fluoro-2-(((2R,7aS)-2-fluorotetrahydro-1H-pyrrolizin-7a(5H)-yl)methoxy)pyrido[4,3-d]pyrimidin-4-yl)(methyl)amino)methyl)azetidin-1-yl)-3-(3-(1,1-difluoroethyl)-1,2,4-oxadiazol-5-yl)prop-2-en-1-one] | < 10 nM |
| C=CC(=O)N1CC[C@@H](N(C)c2nc(OC[C@@]34CCCN3C[C@H](F)C4)nc3c(F)c(-c4nc(N)ccc4C)ncc23)C1 [Example 125, 1-((R)-3-((7-(6-amino-3-methylpyridin-2-yl)-8-fluoro-2-(((2R,7aS)-2-fluorotetrahydro-1H-pyrrolizin-7a(5H)-yl)methoxy)pyrido[4,3-d]pyrimidin-4-yl)(methyl)amino)pyrrolidin-1-yl)prop-2-en-1-one] | ≥ 500 nM |
| CN1CC[C@H]1/C=C/C(=O)N1CC[C@@H](N(C)c2nc(OC[C@@]34CCCN3C[C@H](F)C4)nc3c(F)c(-c4nc(N)cc5cccc(F)c45)ncc23)C1 [Example 135] | 100 to 500 nM |
| C=CC(=O)N1CC[C@@H](N(C)c2nc(OC[C@@]34CCCN3C[C@H](F)C4)nc3c(F)c(-c4cccc(Cl)c4C(F)(F)F)ncc23)[C@H]1C [Example 217] | 10 to 100 nM |
| CN(C)C/C=C/C(=O)N1CC[C@@H](N(C)c2nc(OC[C@@]34CCCN3C[C@H](F)C4)nc3c(F)c(-c4nc(N)cc5cccc(Cl)c45)ncc23)C1 [Example 61, (E)-1-((R)-3-((7-(3-amino-8-chloroisoquinolin-1-yl)-8-fluoro-2-(((2R,7aS)-2-fluorohexahydro-1H-pyrrolizin-7a-yl)methoxy)pyrido[4,3-d]pyrimidin-4-yl)(methyl)amino)pyrrolidin-1-yl)-4-(dimethylamino)but-2-en-1-one] | 10 to 100 nM |
| CN1CC[C@@H]1/C=C/C(=O)N1CC[C@@H](N(C)c2nc(OC[C@@]34CCCN3C[C@H](F)C4)nc3c(F)c(-c4nc(N)cc5cccc(F)c45)ncc23)C1 [Example 90] | < 10 nM |
| Cc1cc(N)nc(N2CCc3c(nc(OC[C@@]45CCCN4C[C@H](F)C5)nc3N(C)[C@@H]3CCN(C(=O)/C=C/c4nc(C(C)C)no4)C3)C2)c1C(F)(F)F [Example 147, (E)-1-((R)-3-((7-(6-amino-4-methyl-3-(trifluoromethyl)pyridin-2-yl)-2-(((2R,7aS)-2-fluorotetrahydro-1H-pyrrolizin-7a(5H)-yl)methoxy)-5,6,7,8-tetrahydropyrido[3,4-d]pyrimidin-4-yl)(methyl)amino)pyrrolidin-1-yl)-3-(3-isopropyl-1,2,4-oxadiazol-5-yl)prop-2-en-1-one] | ≥ 500 nM |
| CN1CC[C@@H]1/C=C/C(=O)N1CC[C@@H](N(C)c2nc(OC[C@@]34CCCN3C[C@H](F)C4)nc3c(F)c(-c4cc(O)cc(Cl)c4C4CC4)ncc23)C1 [Example 213] | < 10 nM |
| C=CC(=O)N1CC[C@@H](N(C)c2nc(OC[C@@]34CCCN3C[C@H](F)C4)nc3c(F)c(-c4cc(O)cc(F)c4C4CC4)ncc23)C1 [Example 206] | < 10 nM |
| C=CC(=O)N1CC[C@@H](N(C)c2nc(OC[C@@]34CCCN3C[C@H](F)C4)nc3c(F)c(-c4c(Cl)c(C)cc5[nH]ncc45)ncc23)C1 [Example 194] | 10 to 100 nM |
| Cc1cc(N)nc(-c2ncc3c(N(C)[C@@H]4CCN(C(=O)/C=C/c5nc(C6CC6)no5)C4)nc(OC[C@@]45CCCN4C[C@H](F)C5)nc3c2F)c1C(F)(F)F [Example 63, (E)-1-((R)-3-((7-(6-amino-4-methyl-3-(trifluoromethyl)pyridin-2-yl)-8-fluoro-2-(((2R,7aS)-2-fluorotetrahydro-1H-pyrrolizin-7a(5H)-yl)methoxy)pyrido[4,3-d]pyrimidin-4-yl)(methyl)amino)pyrrolidin-1-yl)-3-(3-cyclopropyl-1,2,4-oxadiazol-5-yl)prop-2-en-1-one] | < 10 nM |
| CO[C@H]1CCN(C/C=C/C(=O)N2CC[C@@H](N(C)c3nc(OC[C@@]45CCCN4C[C@H](F)C5)nc4c(F)c(-c5cccc(Cl)c5C5CC5)ncc34)C2)C1 [Example 210] | 10 to 100 nM |
| Cc1cc(N)nc(-c2ncc3c(N(C)CC4CN(C(=O)/C=C/c5nc(C(C)(C)O)no5)C4)nc(OC[C@@]45CCCN4C[C@H](F)C5)nc3c2F)c1C(F)(F)F [Example 97] | 10 to 100 nM |
| CC(C)c1noc(/C=C/C(=O)N2CC[C@@H](N(C)c3nc(OC[C@@]45CCCN4C[C@H](F)C5)nc4c(F)c(-c5nc(N)ccc5C5CC5)ncc34)C2)n1 [Example 8, (E)-1-((R)-3-((7-(6-amino-3-cyclopropylpyridin-2-yl)-8-fluoro-2-(((2R,7aS)-2-fluorotetrahydro-1H-pyrrolizin-7a(5H)-yl)methoxy)pyrido[4,3-d]pyrimidin-4-yl)(methyl)amino)pyrrolidin-1-yl)-3-(3-isopropyl-1,2,4-oxadiazol-5-yl)prop-2-en-1-one] | 10 to 100 nM |
| CN(CC1CN(C(=O)/C=C/c2nc(C(C)(C)O)no2)C1)c1nc(OC[C@@]23CCCN2C[C@H](F)C3)nc2c(F)c(-c3nc(N)cc4cccc(Cl)c34)ncc12 [Example 151] | < 10 nM |
| CN1CC[C@H]1/C=C/C(=O)N1CC[C@@H](N(C)c2nc(OC[C@@]34CCCN3C[C@H](F)C4)nc3c(F)c(-c4nc(N)cc5cccc(F)c45)ncc23)C1 (single isomer, unassigned) [Example 2] | 100 to 500 nM |
| C=CC(=O)N1CC[C@@H](N(C)c2nc(OC[C@@]34CCCN3C[C@H](F)C4)nc3c(F)c(-c4cncc(Cl)c4C4CC4)ncc23)C1 [Example 240] | ≥ 500 nM |
| Cc1noc(/C=C/C(=O)N2CC[C@@H](N(C)c3nc(OC[C@@]45CCCN4C[C@H](F)C5)nc4c3CCN(c3nc(N)cc(C)c3C(F)(F)F)C4)C2)n1 [Example 95, (E)-1-((R)-3-((7-(6-amino-4-methyl-3-(trifluoromethyl)pyridin-2-yl)-2-(((2R,7aS)-2-fluorotetrahydro-1H-pyrrolizin-7a(5H)-yl)methoxy)-5,6,7,8-tetrahydropyrido[3,4-d]pyrimidin-4-yl)(methyl)amino)pyrrolidin-1-yl)-3-(3-methyl-1,2,4-oxadiazol-5-yl)prop-2-en-1-one] | ≥ 500 nM |
| C=CC(=O)N1CC[C@@H](N(C)c2nc(OC[C@@]34CCCN3C[C@H](F)C4)nc3c(F)c(-c4cc(F)cc(Cl)c4C4CC4)ncc23)C1 [Example 191] | 100 to 500 nM |
| C=CC(=O)N1CC[C@@H](N(C)c2nc(OC[C@@]34CCCN3C[C@H](F)C4)nc3c(F)c(-c4cc(OC)cc5nccnc45)ncc23)C1 [Example 230] | ≥ 500 nM |
| C=CC(=O)N1CC[C@@H](N(C)c2nc(OC[C@@]34CCCN3C[C@H](F)C4)nc3c(F)c(-c4c[nH]nc4C(F)(F)F)ncc23)C1 [Example 196] | ≥ 500 nM |
